Test results published in patent publication EP2292242B1, “A SCUTELLARIN DERIVATIVE, THE PREPARING PROCESS, THE PHARMACEUTICAL COMPOSITION AND THE USE THEREOF” (Kunming Pharmaceutical Corp., priority 2008, dated 2009).

Columns and labels:
[1] = background statement; cited from earlier work
[2] = comparative study on solubilities (China Pharmacopeia 2005 terms); type: physicochemical; settings: terms per China Pharmacopeia 2005
[3] = system: focal cerebral ischemia induced by MCAO (middle cerebral artery occlusion) in rats; assay: focal cerebral ischemia induced by MCAO (middle cerebral artery occlusion) in rats; type: in vivo, SD rat; settings: induced by ADP-2Na, final concentration of ADP, turbidimetry; 50mg/kg gavage once daily for 5 days; X±SD
Method: Male SD rats, weighing 240~290g, grouping and dosages were as above. Additionally, a positive control group, i.e., nimodipine 50mg/kg group was set up. Animals of each group were gavage once daily for consecutive 5 days in predetermined dosage. At 30 minute after the last administration, the animals were anesthetized with 12% chloral hydrate in 350 mg/kg via intraperitoneal injection. The animals were kept left lateral position and the skin was cut along the middle point between right ear and eye line. Temporalis was separated and cheekbone was sheared. A holl was drilled with a dental drill in front of zygomatic root and MCA was exposed. […]
The animals were scored on neurological functions at 6 hour and 24 hour after modeling, according to behavior such as movement. […]
24 hour after modeling and after neurological scoring, blood was taken via carotid artery intubation in duplicate. For one sample, serum was separated and the activity of AST and LDH was determined according to the method of the kit; for another sample, it was treated with 3.8% sodium citrate in 1:9 for the purpose of anticoagulation, centrifuged at 1000rpm for 5 minutes to prepare platelet rich plasma (PRP), and centrifuged at 3500rpm for 10 minutes to prepare platelet poor plasma (PPP). […]

| SMILES | solubility in water [1] | solubility in 0.01NNaOH ([2]; 0.01NNaOH) | solubility in 95%EtOH ([2]; 95%EtOH) | solubility in H2O ([2]; H2O) | solubility in MeOH ([2]; MeOH) | solubility in n-BuOH ([2]; n-BuOH) | rate of platelet aggregation [3] |
| --- | --- | --- | --- | --- | --- | --- | --- |
| O=C(O)[C@H]1O[C@@H](Oc2cc3oc(-c4ccc(O)cc4)cc(=O)c3c(O)c2O)[C@H](O)[C@@H](O)[C@@H]1O [scutellarin] | sparingly soluble | soluble | slightly soluble | very slightly soluble | slightly soluble | slightly soluble | – |
| COCCOC(=O)C1=C(C)NC(C)=C(C(=O)OC(C)C)C1c1cccc([N+](=O)[O-])c1 (stereo not shown) [nimodipine, reference compound] | – | – | – | – | – | – | 54.15±7.76% |
